According to patent US9359308B2, “Pyrazine kinase inhibitors” (Portola Pharmaceuticals, Inc., priority 2011, dated 2016):
pIC50: −log10 of the molar value.

Target: T1, full length active recombinant SYK enzyme (Homo sapiens, UniProt P43405)
T1 construct: full length active recombinant SYK enzyme (Millipore, Calif.); purchased Millipore
Assay: Inhibition of Syk tyrosine phosphorylation activity (LANCE TR-FRET kinase assay)
Type: biochemical
Conditions: activity in the Syk assays, class symbols
Summary of the method: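 IC50 was derived by non-linear regression of TR-FRET signal (Eu-W1024-PY100 donor, streptavidin-APC acceptor) read 1 h after EDTA quench. The kinase step ran 1 h at room temperature with 1 nM full-length SYK, 550 nM biotinylated DEEDYESP substrate and 100 μM ATP in Tris pH 7.5/MgCl2/DTT at 3% final DMSO.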

Structure (SMILES)	pIC50
COc1cncc(Nc2nc(N[C@@H]3CCOC[C@@H]3N)cnc2C(N)=O)c1 [Example 358, 5-((3R,4R)-3-aminotetrahydro-2H-pyran-4-ylamino)-3-(5-methoxypyridin-3-ylamino)pyrazine-2-carboxamide]	8.00 to 9.00
Cc1cc(Nc2nc(N[C@H](CC3CC3)C(N)=O)cnc2C(N)=O)c[n+]([O-])c1 [Example 100, (R)-3-(6-(1-amino-3-cyclopropyl-1-oxopropan-2-ylamino)-3-carbamoylpyrazin-2-ylamino)-5-methylpyridine 1-oxide]	7.00 to 8.00
COc1cncc(Nc2nc(N[C@H](CC(C)C)C(N)=O)cnc2C(N)=O)c1 [Example 323, (R)-5-(1-amino-4-methyl-1-oxopentan-2-ylamino)-3-(5-methoxypyridin-3-ylamino)pyrazine-2-carboxamide]	8.00 to 9.00
CC[C@@H](Nc1cnc(C(N)=O)c(Nc2cnc3cc(F)ccc3c2)n1)C(N)=O [Example 233, (R)-5-(1-amino-1-oxobutan-2-ylamino)-3-(7-fluoroquinolin-3-ylamino)pyrazine-2-carboxamide]	8.00 to 9.00
CC[C@@H](Nc1cnc(C(N)=O)c(Nc2cc(C3CC3)ns2)n1)C(N)=O [Example 238, (R)-5-(1-amino-1-oxobutan-2-ylamino)-3-(3-cyclopropylisothiazol-5-ylamino)pyrazine-2-carboxamide]	8.00 to 9.00
Cc1cccc(Nc2nc(N[C@@H]3CCCC[C@@H]3N)cnc2C(N)=O)c1 [Example 275, 5-((1R,2S)-2-aminocyclohexylamino)-3-(m-tolylamino)pyrazine-2-carboxamide]	> 9.00
CC[C@@H](Nc1nc(Nc2snc(C)c2I)c(C(N)=O)nc1I)C(N)=O [Example 134, (R)-5-((1-amino-1-oxobutan-2-yl)amino)-6-iodo-3-((4-iodo-3-methylisothiazol-5-yl)amino)pyrazine-2-carboxamide]	6.00 to 7.00
CC(C)C[C@@H](Nc1cnc(C(N)=O)c(Nc2ccc(C3CC3)nc2)n1)C(N)=O [Example 348, (R)-5-(1-amino-4-methyl-1-oxopentan-2-ylamino)-3-(6-cyclopropylpyridin-3-ylamino)pyrazine-2-carboxamide]	8.00 to 9.00
CC[C@@H](Nc1cnc(C(N)=O)c(Nc2cncc(Cl)c2)n1)C(N)=O [Example 223, (R)-5-(1-amino-1-oxobutan-2-ylamino)-3-(5-chloropyridin-3-ylamino)pyrazine-2-carboxamide]	7.00 to 8.00
NC(=O)c1ncc(NCC2(N)CC2)nc1Nc1ccc2ncccc2c1 [Example 128, 5-(((1-aminocyclopropyl)methyl)amino)-3-(quinolin-6-ylamino)pyrazine-2-carboxamide]	8.00 to 9.00
NC(=O)c1ncc(N[C@H](Cc2ccncc2)C(N)=O)nc1Nc1ccc2ncccc2c1 [Example 361, (R)-5-(1-amino-1-oxo-3-(pyridin-4-yl)propan-2-ylamino)-3-(quinolin-6-ylamino)pyrazine-2-carboxamide]	7.00 to 8.00
Cc1nsc(Nc2nc(N[C@@H]3CCCC[C@@H]3N)cnc2C(N)=O)c1F [Example 138]	8.00 to 9.00
NC(=O)c1ncc(N[C@@H]2CCCC[C@@H]2N)nc1Nc1ccc(C(=O)N2CCC2)cc1 [Example 295, 5-((1R,2S)-2-aminocyclohexylamino)-3-(4-(azetidine-1-carbonyl)phenylamino)pyrazine-2-carboxamide]	8.00 to 9.00
NC(=O)c1ncc(N[C@@H]2CCCC[C@@H]2N)nc1Nc1snc2sccc12 [Example 252, 5-((1R,2S)-2-aminocyclohexylamino)-3-(thieno[2,3-c]isothiazol-3-ylamino)pyrazine-2-carboxamide]	> 9.00
CC(C)[C@@H](Nc1cnc(C(N)=O)c(Nc2ccc(S(=O)(=O)N(C)C)cc2)n1)C(N)=O [Example 156, (R)-5-(1-amino-3-methyl-1-oxobutan-2-ylamino)-3-(4-(N,N-dimethylsulfamoyl)phenylamino)pyrazine-2-carboxamide]	7.00 to 8.00
